Literature values, collected in patent publication US20240350654A1, “NANOCARRIERS FOR TARGETED DELIVERY OF THERAPEUTICS” (Northwestern University, priority 2023, published 2024).

Settings: humans, approximation

For `CO[C@@H]1[C@H](N(C)C(=O)c2ccccc2)C[C@H]2O[C@]1(C)n1c3ccccc3c3c4c(c5c6ccccc6n2c5c31)C(=O)NC4` [midostaurin], the “total peak blood concentration of midostaurin and its active metabolites” value is listed as 2.16 µg/mL.
